# Literature values, collected in patent publication US5356784A, “Determination of concentration by affinity titration” (Terrapin Technologies, Inc., priority 1993, dated 1994).
# System: Concanavalin A (ConA)
# Conditions: ConA with bacterial dextran from strain B-1355-5; materials described by Scott et al. PNAS 1992
row,Compound,inhibition of precipitation of ConA-dextran
1,"CO[C@H]1O[C@H](CO)[C@@H](O)[C@H](O)[C@@H]1O [MeMan, methyl-alpha-Man]",inhibited in a dosedependent manner
2,MYWYPY: peptide identified by screening a phage epitope display library; inhibits Con A-dextran precipitation,inhibit
3,VGRAFS: peptide identified by screening a phage epitope display library; inhibits Con A-dextran precipitation,inhibit
